# Measured values reported in US6610471B1, “Methods and compositions to investigate infection by hepatitis B virus and agents to prevent and treat the infection” (priority 1998, dated 2003).
# Test system: HBV
# Assay: Non protein-associated RC and CCC HBV DNA in HBV baculovirus infected HepG2 cells (Southern blot)
# Type: cell-based, hepatitis B virus
# Settings: for non protein-associated RC HBV DNA, % Untreated Control: 50 pfu/cell
# Description: On the indicated days (3, 6, and 9 days of drug treatment) HBV replication in HepG2 cultures was assessed by examining extracellular HBV DNA and intracellular replicative intermediates.
# (T). […] Relaxed circular (RC) and covalently closed circular (CCC) HBV DNA is indicated. […] A conclusion from these studies is that the HBV baculovirus-HepG2 system can be used to complement other in vitro model systems currently used for testing antiviral compounds.
# HepG2 cells were seeded at approximately 20% to 40% confluency and then were grown for 16 to 24 hours before infection. On the day of infection, duplicate plates of cells were trypsinized, and viable cell number was determined with a hemocytometer using Trypan blue exclusion. Average cell counts were calculated and used to determine the volume of high-titer viral stock necessary to infect cells at the indicated moi. Baculovirus was diluted into MEM-FBS to achieve the appropriate moi using volumes of 1.0 and 0.25 mL to infect 100-mm and 35-mm dishes, respectively. Baculovirus was adsorbed to HepG2 cells for one hour at 37° C. with gentle rocking every 15 minutes to ensure that the inoculum was evenly distributed. The inoculum was then aspirated and HepG2 cells were washed two times with phosphate-buffered saline and refed MEM-FBS.
# Nonprotein-bound circular HBV genomes were extracted from HepG2 cells after infection by a high salt extraction of low molecular weight DNA followed by a phenol and chloroform extraction. Nucleic acids were resuspended in 50 μL of water and normalized by OD260. All samples were treated with 100 μg/mL RNase and 30 U of Plasmid-Safe ATP-Dependent DNase (Epicenter Technologies, Madison, Wis.). After a two-hour incubation at 37° C., Plasmid-Safe DNase was heat inactivated at 65° C. according to the manufacturer's instructions. Each sample was separated into two aliquots and one aliquot was digested with Xhol for one hour at 37° C. Samples were analyzed by electrophoresis and Southern blotting.
# 3TC was a gift of BioChem Therapeutic Inc. (Laval, Quebec, Canada). […] Medium containing 3TC was prepared daily as needed using fresh aliquots of 3TC.
smiles,measurement,setting,value
"Nc1ccn([C@@H]2CS[C@H](CO)O2)c(=O)n1 [3TC, (−)-2′-dideoxy-3′-thiacytidine]","non protein-associated RC HBV DNA, % Untreated Control","0.02 μM 3TC, P (from 16 h prior to infection), day 4 p.i. (3 days treatment)",60.9 % Untreated Control
same,"non protein-associated RC HBV DNA, % Untreated Control","0.02 μM 3TC, P (from 16 h prior to infection), day 7 p.i. (6 days treatment)",45.2 % Untreated Control
same,"non protein-associated RC HBV DNA, % Untreated Control","0.02 μM 3TC, T (from 24 h p.i.), day 4 p.i. (3 days treatment)",48.8 % Untreated Control
same,"non protein-associated RC HBV DNA, % Untreated Control","0.02 μM 3TC, T (from 24 h p.i.), day 7 p.i. (6 days treatment)",40.2 % Untreated Control
same,"non protein-associated RC HBV DNA, % Untreated Control","0.2 μM 3TC, P (from 16 h prior to infection), day 4 p.i. (3 days treatment)",8.6 % Untreated Control
same,"non protein-associated RC HBV DNA, % Untreated Control","0.2 μM 3TC, P (from 16 h prior to infection), day 7 p.i. (6 days treatment)",10.5 % Untreated Control
same,"non protein-associated RC HBV DNA, % Untreated Control","0.2 μM 3TC, T (from 24 h p.i.), day 4 p.i. (3 days treatment)",17.3 % Untreated Control
same,"non protein-associated RC HBV DNA, % Untreated Control","0.2 μM 3TC, T (from 24 h p.i.), day 7 p.i. (6 days treatment)",10.9 % Untreated Control
same,"non protein-associated RC HBV DNA, % Untreated Control","2.0 μM 3TC, P (from 16 h prior to infection), day 4 p.i. (3 days treatment)",3.2 % Untreated Control
same,"non protein-associated RC HBV DNA, % Untreated Control","2.0 μM 3TC, P (from 16 h prior to infection), day 7 p.i. (6 days treatment)",5.6 % Untreated Control
same,"non protein-associated RC HBV DNA, % Untreated Control","2.0 μM 3TC, T (from 24 h p.i.), day 4 p.i. (3 days treatment)",6.8 % Untreated Control
same,"non protein-associated RC HBV DNA, % Untreated Control","2.0 μM 3TC, T (from 24 h p.i.), day 7 p.i. (6 days treatment)",6.7 % Untreated Control
same,inhibition at 2 µM,"Hepatitis B virus, HepG2, read-out: inhibition of non protein-associated RC HBV DNA production",> 90%
